Where a SMILES comes first, the peptide text is derived from it.
Tested on: acetic acid ulcer
Assay: Healing accelerating action on acetic acid ulcer of rat
Type: in vivo, Sprague Dawle rats
Method: 15 Sprague Dawle rats each having a weight of about 220 g were used, and a gastric ulcer was experimentally formed in each of the rats. A gastric ulcer was formed by exposing the gastric anterior wall of each of the rats by ventrotomy under etherization, and injecting 0.03 ml of 20% acetic acid into the submucous layer in the boundary between the fundus glands and the pyloric glands of the gastric anterior wall by a Hamilton microsyringe in accordance with the method of Okabe et al., closing the stomach, and then feeding for 7 days in a normal manner.
On the seventh day, five rats were sacrificially killed, and the stomachs were extracted therefrom. The residual 10 rats were divided into two groups consisting of 5 rats each and used as a control group administered with physiologic saline and an experimental group administered with PR-39.
The rats in the control group and the experimental group were intraperitoneally administered with 1 ml of physiologic saline and 0.8 mg/ml of PR-39, respectively, once a day. After administration of physiologic saline or PR-39 for 7 days, the stomach was extracted from each of the rats on the day after final administration (14 days after acetic acid administration).
In each of the extracted stomachs, the pyloric ring and the esophagogastric junction were clamped, and 10 ml of 70% alcohol was injected into the stomach, followed by fixing. The stomach was cut along the curvatura ventriculi major to expose the gastric mucosal surface, and the gastric ulcer formed was visually observed to measure the surface area thereof.
Successively, a central portion of the gastric ulcer was cut out in parallel to the curvatura ventriculi minor, embedded in paraffin, and then stained with HE to histologically examine the formed gastric ulcer.
The examination terms included the length of each of the gastric ulcer, and the thickness of the granulation of the ulcer bottom thereof.

[1] = 14 days after acetic acid, histological observation, PR-39 0.8 mg/ml intraperitoneally once a day for 7 days

CC[C@H](C)[C@H](NC(=O)[C@H](CCCNC(=N)N)NC(=O)[C@@H]1CCCN1C(=O)[C@@H]1CCCN1C(=O)[C@H](CC(C)C)NC(=O)[C@H](CCCNC(=N)N)NC(=O)[C@@H]1CCCN1C(=O)[C@@H]1CCCN1C(=O)[C@H](Cc1ccccc1)NC(=O)[C@H](Cc1ccccc1)NC(=O)[C@@H]1CCCN1C(=O)[C@@H]1CCCN1C(=O)[C@@H]1CCCN1C(=O)[C@H](CCCNC(=N)N)NC(=O)[C@@H]1CCCN1C(=O)[C@H](CCCNC(=N)N)NC(=O)[C@@H]1CCCN1C(=O)[C@H](CC(C)C)NC(=O)[C@H](Cc1ccc(O)cc1)NC(=O)[C@@H]1CCCN1C(=O)[C@@H]1CCCN1C(=O)[C@H](CCCNC(=N)N)NC(=O)[C@@H]1CCCN1C(=O)[C@H](CCCNC(=N)N)NC(=O)[C@H](CCCNC(=N)N)NC(=O)[C@@H](N)CCCNC(=N)N)C(=O)N1CCC[C@H]1C(=O)N1CCC[C@H]1C(=O)NCC(=O)N[C@@H](Cc1ccccc1)C(=O)N1CCC[C@H]1C(=O)N1CCC[C@H]1C(=O)N[C@@H](CCCNC(=N)N)C(=O)N[C@@H](Cc1ccccc1)C(=O)N1CCC[C@H]1C(=O)N1CCC[C@H]1C(=O)N[C@@H](CCCNC(=N)N)C(=O)N[C@@H](Cc1ccccc1)C(=O)N1CCC[C@H]1C(N)=O [PR-39, proline arginine rich peptide-39] (H-RRRPRPPYLPRPRPPPFFPPRLPPRIPPGFPPRFPPRFP-NH2; N-terminus and C-terminus assumed)
Ulcer surface area (14 days after acetic acid, PR-39 0.8 mg/ml intraperitoneally once a day for 7 days): 2.82 ± 1.96 mm2; average±SEM
visual observation of gastric mucosa (14 days after acetic acid, compared with the control group (physiologic saline)): ulcer scar accompanied with concentration of the mucosal folds of gallbladder was observed
Diameter of ulcer [1]: 1.58 ± 0.49 mm
Thickness of granulation tissue [1]: 1.39 ± 0.59 mm
ulcer area as compared with the control group (PR-39 administered every day in the healing stage (7th to 14th day)): significantly decreased
thickness of granulation at the ulcer bottom (PR-39 administration): significantly decreased
length of an ulcer (histological observation) (PR-39 administration group): significantly decreased

Source: patent publication EP0935965A1, “ANTIPYLORI AGENT” (TORAY INDUSTRIES, INC., priority 1996, dated 1997)
